Assay results published in patent US20050154010A1 (The Regents of University of California, priority 2002, published 2005).
pIC50: −log10 of the molar value. Structures can show the parent of a compound that is named as a salt.

Key:
[1] = cited from earlier work
[2] = test system: Chronic lymphocytic leukemia cells (CLL); assay: Viable CLL cells after 48 hours exposure, dye exclusion and flow cytometric analysis; assay type: cell-based, human
Protocol: (§1) After 48 hours exposure, the number of viable cells was determined by dye exclusion and flow cytometric analysis.

[3] = test system: 60 human tumor cell lines; assay: cells; assay type: cell-based
Description: The operation of this screen utilizes 60 different human tumor cell lines, representing leukemia, melanoma, and cancers of the lung, colon, brain, ovary, breast, prostate, and kidney. The aim is to prioritize for further evaluation, synthetic compounds or natural product samples showing selective growth inhibition or cell killing of particular tumor cell lines. This screen is unique in that the complexity of a 60-cell line dose response produced by a given compound results in a biological response pattern which can be utilized in pattern recognition algorithms. Using these algorithms, it is possible to assign a putative mechanism of action to a test compound, or to determine that the response pattern is unique and not similar to that of any of the standard prototype compounds included in the NCI database (see DTP Overview tab). In addition, following characterization of various cellular molecular targets in the 60 cell lines, it may be possible to select compounds most likely to interact with a specific molecular target.
(§2) The human tumor cell lines of the cancer screening panel are grown in RPMI 1640 medium containing 5% fetal bovine serum and 2 mM L-glutamine. For a typical screening experiment, cells are inoculated into 96 well microtiter plates in 100 μL at plating densities ranging from 5,000 to 40,000 cells/well depending on the doubling time of individual cell lines. After cell inoculation, the microtiter plates are incubated at 37° C., 5% CO2, 95% air and 100% relative humidity for 24 h prior to addition of experimental drugs. After 24 h, two plates of each cell line are fixed iin situ with TCA, to represent a measurement of the cell population for each cell line at the time of drug addition (Tz).
Experimental drugs are solubilized in dimethyl sulfoxide at 400-fold the desired final maximum test concentration and stored frozen prior to use. […]
Cells are fixed in situ by the gentle addition of 50 μl of cold 50% (w/v) TCA (final concentration, 10% TCA) and incubated for 60 minutes at 4° C. […] Bound stainis subsequently solubilized with 10 mM trizma base, and the absorbance is read on an automated plate reader at a wavelength of 515 nm. […] Using the seven absorbance measurements [time zero, (Tz), control growth, (C), and test growth in the presence of drug at the five concentration levels ( ? )], tile percentage growth is calculated at each of the drug concentrations levels. Percentage growth inhibition is calculated as: [(Ti−Tz)/(C−Tz)]×100 for concentrations for which Ti>/=Tz [(Ti−Tz)/Tz]×100 for concentrations for which Ti<Tz
Three dose-response parameters are calculated for each experimental agent. […]

NCI-H23 = assay: NCI In Vitro Cell Line Screening; assay type: cell-based; conditions: Homo sapiens; NCI-H23, Non-Small Cell Lung Cancer
Protocol: as §2
(§3) Experimental drugs are solubilized in dimethyl sulfoxide at 400-fold the desired final maximum test concentration and stored frozen prior to use. At the time of drug addition, an aliquot of frozen concentrate is thawed and diluted to twice the desired final maximum test concentration with complete medium containing 50 μg/ml gentamicin. Additional four, 10-fold or ½ log serial dilutions are made to provide a total of five drug concentrations plus control. Aliquots of 100 μl of these different drug dilutions are added to the appropriate microtiter wells already containing 100 μl of medium, resulting in the required final drug concentrations. Following drug addition, the plates are incubated for an additional 48 h at 37° C., 5% CO2, 95% air, and 100% relative humidity. For adherent cells, the assay is terminated by the addition of cold TCA.
(§4) Cells are fixed in situ by the gentle addition of 50 μl of cold 50% (w/v) TCA (final concentration, 10% TCA) and incubated for 60 minutes at 4° C. The supernatant is discarded, and the plates are washed five times with tap water and air-dried. Sulforhodamine B (SRB) solution (100 μl) at 0.4% (w/v) in 1% acetic acid is added to each well, and plates are incubated for 10 minutes at room temperature. After staining, unbound dye is removed by washing five times with 1% acetic acid and the plates are air dried. Bound stainis subsequently solubilized with 10 mM trizma base, and the absorbance is read on an automated plate reader at a wavelength of 515 nm. For suspension cells, the methodology is the same except that the assay is terminated by fixing settled cells at the bottom of the wells by gently adding 50 μl of 80% TCA (final concentration, 16% TCA). Using the seven absorbance measurements [time zero, (Tz), control growth, (C), and test growth in the presence of drug at the five concentration levels ( ? )], tile percentage growth is calculated at each of the drug concentrations levels. Percentage growth inhibition is calculated as: [(Ti−Tz)/(C−Tz)]×100 for concentrations for which Ti>/=Tz [(Ti−Tz)/Tz]×100 for concentrations for which Ti<Tz
(§5) Three dose-response parameters are calculated for each experimental agent. Growth inhibition of 50% (GI50) is calculated from [(Ti−Tz)/(C−Tz)]×100=50, which is the drug concentration resulting in a 50% reduction in the net protein increase (as measured by SRB staining) in control cells during the drug incubation. The drug concentration resulting in total growth inhibition (TGI) is calculated from Ti=Tz. The LC50 (concentration of drug resulting in a 50% reduction in the measured protein at the end of the drug treatment as compared to that at the beginning) indicating a net loss of cells following treatment is calculated from [(Ti−Tz)/Tz]×100=−50. Values are calculated for each of these three parameters if the level of activity is reached; however, if the effect is not reached or is exceeded, the value for that parameter is expressed as greater or less than the maximum or minimum concentration tested.

RXF 393 = assay: NCI In Vitro Cell Line Screening; assay type: cell-based; conditions: Homo sapiens; RXF 393, Renal Cell Carcinoma
Protocol: as §2, §3, §4, §5

HCC-2998 = assay: NCI In Vitro Cell Line Screening; assay type: cell-based; conditions: Homo sapiens; HCC-2998, Colon Cancer
Protocol: as §2, §3, §4, §5

OVCAR-4 = assay: NCI In Vitro Cell Line Screening; assay type: cell-based; conditions: Homo sapiens; OVCAR-4, Ovarian Carcinoma
Protocol: as §2, §3, §4, §5

NCI-H460 = assay: NCI In Vitro Cell Line Screening; assay type: cell-based; conditions: Homo sapiens; NCI-H460, Non-Small Cell Lung Cancer
Protocol: as §2, §3, §4, §5

CAK-1 = assay: NCI In Vitro Cell Line Screening; assay type: cell-based; conditions: Homo sapiens; CAK-1, Renal Cell Carcinoma
Protocol: as §2, §3, §4, §5

LOX IMVI = assay: NCI In Vitro Cell Line Screening; assay type: cell-based; conditions: Homo sapiens, Melanoma
Protocol: as §2, §3, §4, §5

SK-MEL-5 = assay: NCI In Vitro Cell Line Screening; assay type: cell-based; conditions: Homo sapiens; SK-MEL-5, Melanoma
Protocol: as §2, §3, §4, §5

[4] = in vivo; cited from earlier work
[5] = test system: control normal lymphocytes (PBL); assay: Viable normal lymphocytes after 48 hours exposure, dye exclusion and flow cytometric analysis; assay type: cell-based, human; conditions: 10 μM
Protocol: as §1

[6] = test system: Chronic lymphocytic leukemia cells (CLL); assay: Flow cytometry (propidium iodide, DiOC6) of CLL cells after 24 hours exposure; assay type: cell-based, human; conditions: 10 μM, FIG. 2
Protocol: After 24 hours exposure, the percentage of living (lower-right corner), apoptotic (lower-left corner) and dead (higher-left corner) were analyzed by flow cytometry using propidium iodide (y axis) and DiOC6 (x axis). The results, showing the activity of the (+) and (−) enantiomers against CLL cells, are seen in FIG. 2.

HCT-116 = assay: MTT assay, cell viability; assay type: cell-based; conditions: HCT-116, Colon, 72 hours exposure
Protocol: (§6) After 72 hours exposure, the viability of the cells was determined by the rate of conversion of the formazan salt measuring the optical density (OD) at 570 nm (MTT assay).

SU-DHL9 = assay: MTT assay, cell viability; assay type: cell-based; conditions: SU-DHL9, Lymphoma, 72 hours exposure
Protocol: as §6

MDA-231 = assay: MTT assay, cell viability; assay type: cell-based; conditions: MDA-231, Breast, 72 hours exposure
Protocol: as §6

10C9 = assay: MTT assay, cell viability; assay type: cell-based; conditions: 10C9, Lymphoma, 72 hours exposure
Protocol: as §6

RPMI8226 = assay: MTT assay, cell viability; assay type: cell-based; conditions: RPMI8226, Myeloma, 72 hours exposure
Protocol: as §6

RAJI = assay: MTT assay, cell viability; assay type: cell-based; conditions: Lymphoma, 72 hours exposure
Protocol: as §6

U266 = assay: MTT assay, cell viability; assay type: cell-based; conditions: U266, Myeloma, 72 hours exposure
Protocol: as §6

LNCap = assay: MTT assay, cell viability; assay type: cell-based; conditions: Prostate, 72 hours exposure
Protocol: as §6

MCF7 = assay: MTT assay, cell viability; assay type: cell-based; conditions: MCF7, Breast, 72 hours exposure
Protocol: as §6

SU-DHL1 = assay: MTT assay, cell viability; assay type: cell-based; conditions: SU-DHL1, Lymphoma, 72 hours exposure
Protocol: as §6

[7] = in vivo; cited from earlier work; remark: listed apart in the source
[8] = cited from earlier work; remark: listed apart in the source
[9] = test system: peripheral blood T lymphocytes; conditions: Meng et al. 1997; cited from earlier work
CLL cells = conditions: Lagneaux et al. 2001; not feasible in vivo due to toxicity; cited from earlier work

For “2,8-bis-trifluorornethyl-4-quinoline carboxylic acid [Metabolite]”, the “level accumulated in the plasma” value ([1]; plasma) is given as “up to 10 μM”, the “Mean (SD) trough concentration, Plasma” value ([1]; plasma, ten healthy volunteers, 250 mg once weekly for 16 weeks, steady state at week 16) is given as 9.80 (5.07) μmol · 1^−1 and the “Mean (SD) trough concentration, Serum” value ([1]; serum, ten healthy volunteers, 250 mg once weekly for 16 weeks, steady state at week 16) is given as 9.44 (5.00) μmol · 1^−1. For the same compound, the “Mean (SD) trough concentration, Whole Blood” value ([1]; whole blood, ten healthy volunteers, 250 mg once weekly for 16 weeks, steady state at week 16) was 4.89 (2.58) μmol · 1^−1.

In the case of O[C@H](c1cc(C(F)(F)F)nc2c(C(F)(F)F)cccc12)[C@@H]1CCCCN1 (racemic) [Mefloquine, (R*,S*)-(±)-alpha-2-piperidinyl-2,8-bis(trifluoromethyl)-4-quinolinemethanol], the “concentration effective against CLL cells” value [2] was ≤ 10 µM, the CC50 ([3]; Homo sapiens, 48 h, read-out: Mean LC50) was 87 µM and the GI50 ([3]; Homo sapiens, mean over 60 tumor cell lines, 48 h, SRB) was 4 µM. The “Mean TGI50” value ([3]; mean over 60 tumor cell lines, 48 h, SRB) was 26 µM, the “number of the 60 cell lines against which active” value ([3]; of the 60 cell lines in the screen) was 58 and the GI50 (NCI-H23) was 2800 nM. The GI50 (RXF 393) was 1700 nM, the GI50 (HCC-2998) was 2000 nM and the GI50 (OVCAR-4) was 1900 nM. The GI50 (NCI-H460) was 2100 nM, the GI50 (CAK-1) was 100 nM and the GI50 (LOX IMVI) was 1300 nM. For the same compound, the GI50 (SK-MEL-5) was 2000 nM and the bioavailability [4] was 80%.

For O[C@H](c1cc(C(F)(F)F)nc2c(C(F)(F)F)cccc12)[C@@H]1CCCCN1 (relative stereo) [Mefloquine, (R*,S*)-(±)-alpha-2-piperidinyl-2,8-bis(trifluoromethyl)-4-quinolinemethanol], the “apoptosis induction in CLL cells” value ([2]; 10 μM, 48 hours exposure) was “inducing potent apoptosis” and the “apoptosis induction in normal lymphocytes” value [5] was “not against normal lymphocytes”.

With OC(c1cc(C(F)(F)F)nc2c(C(F)(F)F)cccc12)C1CCCCN1 (single isomer, unassigned; (-)) [(−)Mefloquine] the “activity against CLL cells” value [6] was “activity”, the pIC50 (HCT-116) was 4.92 and the pIC50 (SU-DHL9) was 4.82. The pIC50 (MDA-231) was 4.40, the pIC50 (10C9) was 4.70 and the pIC50 (RPMI8226) was 4.82. For the same compound, the pIC50 (RAJI) was 4.52, the pIC50 (U266) was 4.60 and the pIC50 (LNCap) was 4.60. The pIC50 (MCF7) was 4.70, the pIC50 (SU-DHL1) was 4.70 and the “passage of the blood brain barrier / accumulation in the brain” value [7] was “does not seem to pass the blood brain barrier”.

In the case of O[C@H](c1cc(C(F)(F)F)nc2c(C(F)(F)F)cccc12)[C@@H]1CCCCN1 [(+)-mefloquine], the “activity against CLL cells” value [6] is given as “activity” and the “passage of the blood brain barrier / accumulation in the brain” value [7] is given as “accumulate in the brain”.

For OC(c1cc(C(F)(F)F)nc2c(C(F)(F)F)cccc12)C1CCCCN1 (centres unmarked) [Mefloquine hydrochloride], the solubility in ethanol ([8]; ethanol) is listed as “soluble” and the solubility in water ([8]; water) is listed as “slightly soluble”.

For CCN(CCO)CCCC(C)Nc1ccnc2cc(Cl)ccc12 (centres unmarked) [hydroxychloroquine], the “apoptosis induction in peripheral blood T lymphocytes” value [9] is given as “induce apoptosis” and the “concentration active against CLL cells” value (CLL cells) is given as ≥ 30 µg/mL.
